# In ChEMBL document CHEMBL1128553, “Synthesis of 1,4,7,8,9,10-hexahydro-9-methyl-6-nitropyrido[3,4-f]- quinoxaline-2,3-dione and related quinoxalinediones: characterization of alpha-amino-3-hydroxy-5-methyl-4-isoxazolepropionic acid (and N-methyl-D-aspartate) receptor and anticonvulsant activity” (J Med Chem, 1995):
# Assays:
# [1] = target: T1, Glutamate receptor ionotropic, AMPA (Rattus norvegicus, UniProt P19490+P19491+P19492+P19493)
# Description: (§1) Binding affinity was determined against ionotropic glutamate receptor AMPA in rat brain synaptic membranes using [3H]AMPA as radioligand
# Rattus norvegicus [2] = species on record: Rattus norvegicus; assay: Concentration of compound that inhibits by 50% LDH released by 24 hr application of 100 uM AMPA; format: functional, organism-based
# Rattus norvegicus [3] = species on record: Rattus norvegicus; assay: Concentration of compound that inhibits by 50% LDH released by 24 hr application of 500 uM kainate; format: functional, organism-based
# [4] = target: T1, Glutamate receptor ionotropic, AMPA; remark: listed apart in the source
# Description: Antagonistic activity against Ionotropic glutamate receptor AMPA induced LDH release in cultured rat cortical neurons after 24 hr 100 uM AMPA
# [5] = target: Glutamate receptor ionotropic, kainate; assay: Binding affinity for the ionotropic glutamate receptor kainate in rat brain synaptic membranes using [3H]kainate as radioligand; format: cell membranes
# [6] = target: T1, Glutamate receptor ionotropic, AMPA; remark: listed apart in the source
# Description: Inhibition of Ionotropic glutamate receptor AMPA induced depolarization in rat cortical wedge by application of 10 uM of AMPA
# Rattus norvegicus [7] = species on record: Rattus norvegicus; assay: Concentration of compound that inhibits by 50% depolarizations induced by 10 uM AMPA; format: functional
# [8] = target: Glutamate receptor ionotropic, NMDA 1 (Rattus norvegicus, UniProt P35439); assay: Affinity for N-methyl-D-aspartate glutamate receptor 1 in rat brain synaptic membranes, using [3H]glycine as radioligand; format: cell membranes
# [9] = target: Glutamate receptor ionotropic, kainate; assay: Antagonistic activity against Ionotropic glutamate receptor kainate induced LDH release in cultured cortical neurons in rat after 24 hr application of 500 uM of kainate; format: functional
# [10] = target: Glutamate receptor ionotropic, AMPA (Rattus norvegicus, UniProt P19491+P19492+P19493+P19490)
# Glutamate receptor ionotropic, AMPA (Rattus norvegicus, UniProt P19491+P19492+P19493+P19490), sequence (P19491 whole entry): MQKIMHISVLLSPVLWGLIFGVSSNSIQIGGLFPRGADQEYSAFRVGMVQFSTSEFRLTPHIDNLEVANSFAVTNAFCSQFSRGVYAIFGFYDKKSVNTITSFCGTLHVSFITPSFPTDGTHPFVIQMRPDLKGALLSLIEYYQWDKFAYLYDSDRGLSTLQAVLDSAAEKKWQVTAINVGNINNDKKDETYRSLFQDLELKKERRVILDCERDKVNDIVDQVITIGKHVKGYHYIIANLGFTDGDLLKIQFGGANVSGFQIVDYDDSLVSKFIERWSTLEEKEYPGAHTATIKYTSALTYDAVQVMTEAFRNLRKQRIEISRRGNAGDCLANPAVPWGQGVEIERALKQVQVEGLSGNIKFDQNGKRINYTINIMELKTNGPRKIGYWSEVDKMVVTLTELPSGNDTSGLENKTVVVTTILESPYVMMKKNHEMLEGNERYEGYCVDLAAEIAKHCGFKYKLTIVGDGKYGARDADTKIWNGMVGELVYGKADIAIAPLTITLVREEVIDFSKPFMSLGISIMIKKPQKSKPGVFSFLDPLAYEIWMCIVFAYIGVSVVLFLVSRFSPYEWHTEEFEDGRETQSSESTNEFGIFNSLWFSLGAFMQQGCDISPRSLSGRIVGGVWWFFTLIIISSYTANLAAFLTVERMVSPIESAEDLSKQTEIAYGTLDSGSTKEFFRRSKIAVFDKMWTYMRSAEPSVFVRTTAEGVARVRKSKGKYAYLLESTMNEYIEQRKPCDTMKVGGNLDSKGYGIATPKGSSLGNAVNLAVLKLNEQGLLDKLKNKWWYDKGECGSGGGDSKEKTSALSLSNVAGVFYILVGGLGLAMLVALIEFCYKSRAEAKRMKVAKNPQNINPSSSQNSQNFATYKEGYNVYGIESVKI
# Glutamate receptor ionotropic, AMPA (Rattus norvegicus, UniProt P19491+P19492+P19493+P19490), sequence (P19492 whole entry): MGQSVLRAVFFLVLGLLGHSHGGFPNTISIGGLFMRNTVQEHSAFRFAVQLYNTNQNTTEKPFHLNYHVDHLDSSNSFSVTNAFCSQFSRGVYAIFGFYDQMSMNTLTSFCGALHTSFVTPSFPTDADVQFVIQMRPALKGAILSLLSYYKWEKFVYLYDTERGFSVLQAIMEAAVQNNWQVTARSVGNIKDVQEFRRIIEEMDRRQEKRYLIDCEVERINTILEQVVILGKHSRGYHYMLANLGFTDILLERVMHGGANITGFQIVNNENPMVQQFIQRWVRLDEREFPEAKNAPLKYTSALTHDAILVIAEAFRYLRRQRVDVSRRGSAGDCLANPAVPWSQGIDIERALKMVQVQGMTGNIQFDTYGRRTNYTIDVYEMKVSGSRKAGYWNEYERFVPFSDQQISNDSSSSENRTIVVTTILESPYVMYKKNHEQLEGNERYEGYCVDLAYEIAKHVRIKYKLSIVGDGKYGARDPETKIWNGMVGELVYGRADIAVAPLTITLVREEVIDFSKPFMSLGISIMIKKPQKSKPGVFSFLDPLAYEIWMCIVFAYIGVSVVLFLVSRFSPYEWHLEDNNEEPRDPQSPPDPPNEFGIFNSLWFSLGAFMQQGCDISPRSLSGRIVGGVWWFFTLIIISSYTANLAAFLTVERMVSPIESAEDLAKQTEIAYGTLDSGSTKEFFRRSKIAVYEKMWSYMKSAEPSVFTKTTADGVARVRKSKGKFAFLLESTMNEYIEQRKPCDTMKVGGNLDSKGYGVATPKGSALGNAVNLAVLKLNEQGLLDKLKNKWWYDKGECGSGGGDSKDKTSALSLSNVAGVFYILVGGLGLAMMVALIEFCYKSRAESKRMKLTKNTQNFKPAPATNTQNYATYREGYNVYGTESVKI
# Glutamate receptor ionotropic, AMPA (Rattus norvegicus, UniProt P19491+P19492+P19493+P19490), sequence (P19493 whole entry): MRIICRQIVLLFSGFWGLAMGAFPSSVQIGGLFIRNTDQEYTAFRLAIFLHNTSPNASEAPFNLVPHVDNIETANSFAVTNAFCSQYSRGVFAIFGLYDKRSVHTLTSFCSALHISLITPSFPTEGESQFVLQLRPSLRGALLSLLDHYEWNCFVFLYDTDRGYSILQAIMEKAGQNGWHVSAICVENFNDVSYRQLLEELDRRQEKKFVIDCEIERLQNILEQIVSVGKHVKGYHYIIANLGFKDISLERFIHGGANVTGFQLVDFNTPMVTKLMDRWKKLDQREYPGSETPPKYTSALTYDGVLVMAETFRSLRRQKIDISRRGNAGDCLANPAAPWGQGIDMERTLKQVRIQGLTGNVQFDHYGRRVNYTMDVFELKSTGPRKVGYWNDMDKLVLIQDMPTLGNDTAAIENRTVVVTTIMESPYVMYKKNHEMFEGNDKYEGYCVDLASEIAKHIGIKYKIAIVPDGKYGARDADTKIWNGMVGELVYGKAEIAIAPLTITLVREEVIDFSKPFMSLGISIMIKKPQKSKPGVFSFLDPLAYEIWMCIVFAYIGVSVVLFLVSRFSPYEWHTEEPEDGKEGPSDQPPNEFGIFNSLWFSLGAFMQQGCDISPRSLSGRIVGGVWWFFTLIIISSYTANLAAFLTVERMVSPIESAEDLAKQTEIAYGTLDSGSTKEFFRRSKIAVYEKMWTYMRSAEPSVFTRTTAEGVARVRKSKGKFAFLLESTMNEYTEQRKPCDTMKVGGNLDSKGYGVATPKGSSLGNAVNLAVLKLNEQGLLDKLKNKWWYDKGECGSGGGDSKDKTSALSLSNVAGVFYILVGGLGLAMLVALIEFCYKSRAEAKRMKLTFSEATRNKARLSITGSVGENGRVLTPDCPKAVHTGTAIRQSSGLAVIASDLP
# Glutamate receptor ionotropic, AMPA (Rattus norvegicus, UniProt P19491+P19492+P19493+P19490), sequence (P19490 whole entry): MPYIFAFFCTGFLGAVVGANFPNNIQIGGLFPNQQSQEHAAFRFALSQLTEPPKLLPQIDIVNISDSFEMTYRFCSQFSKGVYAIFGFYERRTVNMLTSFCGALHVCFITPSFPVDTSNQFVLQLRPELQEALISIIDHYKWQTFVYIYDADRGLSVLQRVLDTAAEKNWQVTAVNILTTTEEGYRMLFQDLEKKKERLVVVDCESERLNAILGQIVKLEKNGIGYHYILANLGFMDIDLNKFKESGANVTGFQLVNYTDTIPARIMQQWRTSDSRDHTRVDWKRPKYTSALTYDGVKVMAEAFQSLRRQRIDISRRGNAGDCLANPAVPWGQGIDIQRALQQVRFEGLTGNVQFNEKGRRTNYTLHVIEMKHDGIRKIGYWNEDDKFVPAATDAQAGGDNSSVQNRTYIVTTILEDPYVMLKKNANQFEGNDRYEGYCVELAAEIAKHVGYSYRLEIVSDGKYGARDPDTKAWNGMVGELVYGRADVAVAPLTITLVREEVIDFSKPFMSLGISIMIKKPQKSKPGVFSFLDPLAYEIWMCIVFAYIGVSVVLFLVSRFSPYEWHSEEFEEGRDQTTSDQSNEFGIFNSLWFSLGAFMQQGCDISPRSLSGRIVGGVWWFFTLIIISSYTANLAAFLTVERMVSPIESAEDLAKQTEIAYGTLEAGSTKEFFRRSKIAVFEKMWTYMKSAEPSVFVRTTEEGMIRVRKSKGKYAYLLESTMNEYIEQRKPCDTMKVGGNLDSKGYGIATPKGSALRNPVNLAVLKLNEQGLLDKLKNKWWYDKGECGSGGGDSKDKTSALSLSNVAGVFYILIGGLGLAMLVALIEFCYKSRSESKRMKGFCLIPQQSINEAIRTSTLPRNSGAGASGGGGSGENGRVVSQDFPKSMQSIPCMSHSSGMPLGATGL
# Description: as §1
IC50 [1] [µM],IC50 (Rattus norvegicus [2]) [µM],IC50 (Rattus norvegicus [3]) [µM],IC50 [4] [µM],IC50 [5] [µM],IC50 [6] [µM],IC50 (Rattus norvegicus [7]) [µM],IC50 [8] [µM],IC50 [9] [µM],Structure (SMILES),IC50 [10] [µM]
139,–,–,–,–,–,–,–,–,COC(=O)CC1c2ccc(Cl)cc2NC(=O)C1[N+](=O)[O-] (configuration not stated),–
0.166,6,7,6,0.52,0.7,0.7,1.4,7,CCN1CCc2c([N+](=O)[O-])cc3[nH]c(=O)c(=O)[nH]c3c2C1,–
> 100,> 30,> 30,> 30,2.9,> 30,> 30,> 100,> 30,CCC(C)CN1CCc2c(Br)cc3nc(O)c(O)nc3c2C1 (configuration not stated),–
> 100,–,–,–,48,–,–,> 100,–,CCC(C)CN1CCc2c(ccc3nc(O)c(O)nc23)C1 (configuration not stated),–
1.3,–,–,–,14,–,–,267,–,CCN1CCc2c(c(Br)cc3[nH]c(=O)c(=O)[nH]c23)C1,–
0.153,6,7,6,0.29,1.5,1.5,0.93,7,CC(C)N1CCc2c([N+](=O)[O-])cc3[nH]c(=O)c(=O)[nH]c3c2C1,–
0.54,25,26,25,0.49,14,14,5,26,CCN1CCc2c(c([N+](=O)[O-])cc3nc(O)c(O)nc23)C1,–
17.6,–,–,–,6.7,–,–,> 10,–,Cc1cc2[nH]c(=O)c(=O)[nH]c2c2c1CN(C)CC2,–
0.28,15,–,15,0.85,1.6,1.6,0.93,–,CCC(C)N1CCc2c([N+](=O)[O-])cc3[nH]c(=O)c(=O)[nH]c3c2C1 (configuration not stated),–
> 100,–,–,–,21,–,–,–,–,CCC(C)N1CCc2ccc3nc(O)c(O)nc3c2C1 (configuration not stated),–
44,–,–,–,22,–,–,–,–,COC(=O)c1cc2nc(O)c(O)nc2c2c1CN(C)CC2,–
18,–,–,–,71.2,–,–,> 100,–,CN1CCc2ccc3[nH]c(=O)c(=O)[nH]c3c2C1,–
2.2,–,–,–,11,–,–,1.3,–,O=c1[nH]c2ccc3c(c2[nH]c1=O)NCCC3,–
24,–,–,–,–,–,–,–,–,CN1CCCc2c1ccc1nc(O)c(O)nc21,–
6.5,–,–,–,29.2,–,–,> 100,–,CN1CCc2c(ccc3[nH]c(=O)c(=O)[nH]c23)C1,–
> 100,–,–,–,45,–,–,> 100,–,CCCCCCCN1CCc2c(ccc3[nH]c(=O)c(=O)[nH]c23)C1,–
2.8,–,–,–,1.7,–,–,20,–,CCCN1CCc2c(c([N+](=O)[O-])cc3[nH]c(=O)c(=O)[nH]c23)C1,–
18,–,–,–,23,–,–,–,–,CCCN1CCc2c(ccc3[nH]c(=O)c(=O)[nH]c23)C1,–
5.8,–,–,–,79,–,–,> 10,–,CCCCCCCN1CCc2c(c([N+](=O)[O-])cc3[nH]c(=O)c(=O)[nH]c23)C1,–
> 100,–,–,–,–,–,–,–,–,CCOC(=O)c1nc2cc(Br)c3c(c2nc1O)CCN(C)C3,–
3.5,–,–,–,1.5,–,–,1,–,O=c1[nH]c2cc(Br)c3c(c2[nH]c1=O)CNCC3,–
12,–,–,–,17,–,–,–,–,Oc1nc2ccc3c(c2nc1O)CCNC3,–
96,–,–,–,72,–,–,–,–,CN1CCc2c(c(S(=O)(=O)c3ccccc3)cc3nc(O)c(O)nc23)C1,–

IC50 [1] [µM],IC50 (Rattus norvegicus [2]) [µM],IC50 (Rattus norvegicus [3]) [µM],IC50 [4] [µM],IC50 [5] [µM],IC50 [6] [µM],IC50 (Rattus norvegicus [7]) [µM],IC50 [8] [µM],IC50 [9] [µM],Structure (SMILES),IC50 [10] [µM]
1.3,–,–,–,15,–,–,> 100,–,CCC(C)CN1CCc2c(c([N+](=O)[O-])cc3[nH]c(=O)c(=O)[nH]c23)C1 (configuration not stated),–
1.36,–,–,–,2.4,–,–,1.4,–,CN1CCc2c(C#N)cc3[nH]c(=O)c(=O)[nH]c3c2C1,–
2.84,–,–,–,2.83,–,–,4,–,CN1CCc2c(Br)cc3[nH]c(=O)c(=O)[nH]c3c2C1,–
9.7,> 30,> 30,> 30,0.68,16.5,16.5,> 10,> 30,CC(C)CCN1CCc2c(Br)cc3nc(O)c(O)nc3c2C1,–
2.5,–,–,–,0.43,–,–,> 10,–,CCC(C)N1CCc2c(Br)cc3nc(O)c(O)nc3c2C1 (configuration not stated),–
123,–,–,–,25,–,–,–,–,CC(C)CCN1CCc2ccc3nc(O)c(O)nc3c2C1,–
0.74,–,–,–,6.4,–,–,0.62,–,CCN1CCc2c(Br)cc3[nH]c(=O)c(=O)[nH]c3c2C1,–
4.3,–,–,–,–,–,–,–,–,O=C(NS(=O)(=O)c1ccccc1)c1nc2cc(Cl)c(Cl)cc2[nH]c1=O,–
56,–,–,–,36,–,–,–,–,CN1CCc2c(c(C(=O)O)cc3nc(O)c(O)nc23)C1,–
13,–,–,–,20,–,–,50,–,CCOC(=O)C(=O)N1CCCc2c1ccc1[nH]c(=O)c(=O)[nH]c21,–
41,–,–,–,20,–,–,–,–,CCN1CCc2ccc3[nH]c(=O)c(=O)[nH]c3c2C1,–
0.11,5,7,5,1.18,–,–,0.86,7,CC(C)CCN1CCc2c([N+](=O)[O-])cc3[nH]c(=O)c(=O)[nH]c3c2C1,–
100,–,–,–,28,–,–,> 100,–,CN1CCc2c(N)cc3[nH]c(=O)c(=O)[nH]c3c2C1,–
1.1,–,–,–,6.4,–,–,> 10,–,CCCN1CCc2c(c(Br)cc3nc(O)c(O)nc23)C1,–
1.9,–,–,–,5.7,–,–,> 10,–,CN1CCc2c(c(Br)c([N+](=O)[O-])c3[nH]c(=O)c(=O)[nH]c23)C1,–
21,–,–,–,37,–,–,–,–,CCN1CCc2c(ccc3nc(O)c(O)nc23)C1,–
9,–,–,–,–,–,–,–,–,O=c1[nH]c2cc(Br)c3c(c2[nH]c1=O)CCCN3,–
> 100,–,–,–,> 100,–,–,> 100,–,CC(=O)Nc1cc2[nH]c(=O)c(=O)[nH]c2c2c1CCN(C)C2,–
24,–,–,–,8.9,–,–,–,–,Oc1nc2ccc3c(c2nc1O)CCCN3,–
1.86,–,–,–,1.76,–,–,4.3,–,CN1CCc2c(c(Br)cc3[nH]c(=O)c(=O)[nH]c23)C1,–
> 100,–,–,–,–,–,–,–,–,CCC(C)CN1CCc2ccc3nc(O)c(O)nc3c2C1 (configuration not stated),–
0.28,8,11,8,0.28,–,–,1.3,11,CCC(C)CN1CCc2c([N+](=O)[O-])cc3[nH]c(=O)c(=O)[nH]c3c2C1 (configuration not stated),–
0.2,–,–,–,–,–,–,–,–,O=c1[nH]c2cc(-n3ccnc3)c([N+](=O)[O-])cc2[nH]c1=O [YM-90K],–

Structure (SMILES),IC50 [1] [µM],IC50 (Rattus norvegicus [2]) [µM],IC50 (Rattus norvegicus [3]) [µM],IC50 [4] [µM],IC50 [5] [µM],IC50 [6] [µM],IC50 (Rattus norvegicus [7]) [µM],IC50 [8] [µM],IC50 [9] [µM],IC50 [10] [µM]
CN1CCc2c([N+](=O)[O-])cc3[nH]c(=O)c(=O)[nH]c3c2C1,0.063,2.5,4,2.5,0.368,0.5,0.5,0.37,4,0.063
CCc1cnc2c(O)nc3cc([N+](=O)[O-])c(-n4ccnc4)cc3n12,0.02,–,–,–,–,–,–,–,–,–
CN1Cc2c(S(=O)(=O)N(C)C)cc3c(N=O)c(O)[nH]c3c2C1,0.6,–,–,–,–,–,–,–,–,–
CN1CCc2c(c([N+](=O)[O-])cc3[nH]c(=O)c(=O)[nH]c23)C1,0.29,18,9,18,0.38,1.8,1.8,4.9,9,–
